Experimental data taken from patent US20240000767A1, “COMBINATION OF AN ALPHA2-ADRENOCEPTOR SUBTYPE C (ALPHA-2C) ANTAGONIST WITH A TASK1/3 CHANNEL BLOCKER FOR THE TREATMENT OF SLEEP APNEA” (Bayer Aktiengesellschaft, priority 2020, published 2024).

target: human ADRA2C receptor (Homo sapiens (Human), UniProt P18825); assay: In vitro activity assay to determine the inhibition of recombinant ADRA2C (CHO-K1 cells, aequorin bioluminescence); assay type: cell-based; conditions: inhibition of noradrenaline-induced bioluminescence signal; some mean values from multiple determinations; read-out: ARα2C IC50
Summary of the method: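 IC50 is the concentration halving the agonist (noradrenaline)-evoked rise in aequorin luminescence, fitted by 4-parameter Hill function. Read in stable Gαq/aequorin CHO-K1 cells expressing recombinant human ADRA2C.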

human ADRA2C receptor, sequence (P18825 whole entry): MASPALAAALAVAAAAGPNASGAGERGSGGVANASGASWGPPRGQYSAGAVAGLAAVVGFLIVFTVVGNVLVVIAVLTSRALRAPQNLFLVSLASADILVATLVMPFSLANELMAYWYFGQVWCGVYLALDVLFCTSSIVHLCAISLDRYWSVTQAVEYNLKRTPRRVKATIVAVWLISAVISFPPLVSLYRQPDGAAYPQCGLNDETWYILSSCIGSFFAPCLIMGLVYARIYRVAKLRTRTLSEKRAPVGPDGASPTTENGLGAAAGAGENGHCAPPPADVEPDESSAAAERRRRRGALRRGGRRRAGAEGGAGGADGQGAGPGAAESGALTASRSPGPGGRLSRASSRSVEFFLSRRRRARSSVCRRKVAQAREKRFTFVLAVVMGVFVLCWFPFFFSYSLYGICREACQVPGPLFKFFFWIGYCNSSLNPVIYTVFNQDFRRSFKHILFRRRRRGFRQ

| Structure (SMILES) | IC50 |
| --- | --- |
| CC1(C)CCCN(C2CCN(c3ncc(C(=O)NCc4ncc(F)cc4F)s3)CC2)C1 [Example 63, N-[(3,5-Difluoropyridin-2-yl)methyl]-2-(3,3-dimethyl[1,4′-bipiperidin]-1′-yl)-1,3-thiazole-5-carboxamide] | 570 nM |
| C[C@@H]1CCCN(C2CCCN(c3ncc(C(=O)NCc4ncc(F)cc4F)s3)CC2)C1 (stereo partly drawn) [Example 71, N-[(3,5-Difluoropyridin-2-yl)methyl]-2-{4-[(3R)-3-methylpiperidin-1-yl]azepan-1-yl}-1,3-thiazole-5-carboxamide] | 100 nM |
| Cc1ccc(CNC(=O)c2cnc(N3CCC(N4CCC[C@@H](C)C4)CC3)s2)cn1 [Example 72, 2-[(3R)-3-methyl[1,4′-bipiperidin]-1′-yl]-N-[(6-methylpyridin-3-yl)methyl]-1,3-thiazole-5-carboxamide] | 180 nM |
| C[C@@H]1CCCN(C2CCN(c3ncc(C(=O)NCc4ccccc4)s3)CC2)C1 [Example 73, N-Benzyl-2-[(3R)-3-methyl[1,4′-bipiperidin]-1′-yl]-1,3-thiazole-5-carboxamide] | 219 nM |
| CC(F)CCOCC1CCCN(C2CCN(c3ncc(C(=O)NCc4ncc(F)cc4F)s3)CC2)C1 (stereo not drawn) [Example 74, diamix-N-[(3,5-Difluoropyridin-2-yl)methyl]-2-[3-({[3-fluorobutyl]oxy}methyl)[1,4′-bipiperidin]-1′-yl]-1,3-thiazole-5-carboxamide] | 285 nM |
| C[C@@H]1CCCN(C2CCN(c3ncc(C(=O)NCc4ccncc4F)s3)CC2)C1 [Example 76, N-[(3-Fluoropyridin-4-yl)methyl]-2-[(3R)-3-methyl[1,4′-bipiperidin]-1′-yl]-1,3-thiazole-5-carboxamide] | 400 nM |
| Cc1cc(C)c(CNC(=O)c2cnc(N3CCC(N4CCC[C@@H](C)C4)CC3)s2)cn1 [Example 78, N-[(4,6-Dimethylpyridin-3-yl)methyl]-2-[(3R)-3-methyl[1,4′-bipiperidin]-1′-yl]-1,3-thiazole-5-carboxamide] | 755 nM |
| C[C@@H]1CCCN(C2CCN(c3ncc(C(=O)NCc4c(Cl)cnn4C)s3)CC2)C1 [Example 79, N-[(4-Chloro-1-methyl-1H-pyrazol-5-yl)methyl]-2-[(3R)-3-methyl[1,4′-bipiperidin]-1′-yl]-1,3-thiazole-5-carboxamide] | 50.3 nM |
| COc1cccc(CNC(=O)c2cnc(N3CCC(N4CCC[C@@H](C)C4)CC3)s2)c1 [Example 80] | 90.5 nM |
| C[C@@H]1CCCN(C2CCN(c3ncc(C(=O)NCc4cc(F)ccc4F)s3)CC2)C1 [Example 81] | 22.2 nM |
| C[C@@H]1CCCN(C2CCN(c3ncc(C(=O)NCc4cccc(O)c4)s3)CC2)C1 [Example 82] | 102 nM |
| CC(CNC(=O)c1cnc(N2CCC(N3CCC[C@@H](C)C3)CC2)s1)c1ccccc1 (stereo partly drawn) [Example 83] | 98.1 nM |
| C[C@@H]1CCCN(C2CCN(c3ncc(C(=O)NCc4ccc(F)cc4)s3)CC2)C1 [Example 84] | 65 nM |
| C[C@@H]1CCCN(C2CCN(c3ncc(C(=O)NCc4cccnc4)s3)CC2)C1 [Example 85] | 600 nM |
| C[C@@H]1CCCN(C2CCN(c3ncc(C(=O)NCc4cccc(F)c4)s3)CC2)C1 [Example 86] | 28 nM |
| C[C@@H]1CCCN(C2CCN(c3ncc(C(=O)NCc4ccccc4F)s3)CC2)C1 [Example 87] | 25.5 nM |
| C[C@@H]1CCCN(C2CCN(c3ncc(C(=O)Nc4ccc(F)c(C#N)c4)s3)CC2)C1 [Example 89] | 230 nM |

| Structure (SMILES) | IC50 |
| --- | --- |
| C[C@@H]1CCCN(C2CCN(c3ncc(C(=O)N(C)Cc4cccnc4)s3)CC2)C1 [Example 90] | 97 nM |
| C[C@@H]1CCCN(C2CCN(c3ncc(C(=O)N(C)Cc4ccncc4)s3)CC2)C1 [Example 91] | 284 nM |
| C[C@@H]1CCCN(C2CCN(c3ncc(C(=O)N(C)Cc4ccccc4)s3)CC2)C1 [Example 92] | 85 nM |
| C[C@@H]1CCCN(C2CCN(c3ncc(C(=O)Nc4ccccc4C4CC4)s3)CC2)C1 [Example 93] | 630 nM |
| C[C@@H]1CCCN(C2CCN(c3ncc(C(=O)NCc4cccc(Cl)c4)s3)CC2)C1 [Example 94] | 150 nM |
| Cc1ccc(C(C)NC(=O)c2cnc(N3CCC(N4CCC[C@@H](C)C4)CC3)s2)cc1 (stereo partly drawn) [Example 95] | 800 nM |
| C[C@@H]1CCCN(C2CCN(c3ncc(C(=O)Nc4cc(Cl)ccc4O)s3)CC2)C1 [Example 96] | 1000 nM |
| COc1ccc(F)cc1NC(=O)c1cnc(N2CCC(N3CCC[C@@H](C)C3)CC2)s1 [Example 97] | 1300 nM |
| CCc1cc(NC(=O)c2cnc(N3CCC(N4CCC[C@@H](C)C4)CC3)s2)ccn1 [Example 98] | 1600 nM |
| C[C@@H]1CCCN(C2CCN(c3nc(Cl)c(C(=O)NCc4ncc(F)cc4F)s3)CC2)C1 [Example 120, 4-Chloro-N-[(3,5-difluoropyridin-2-yl)methyl]-2-[(3R)-3-methyl[1,4′-bipiperidin]-1′-yl]-1,3-thiazole-5-carboxamide] | 41 nM |
| O=C(NCc1ncc(F)cc1F)c1cnc(N2CCC(N3CCCCC3)CC2)s1 [Example 128, 2-([1,4′-Bipiperidin]-1′-yl)-N-[(3,5-difluoropyridin-2-yl)methyl]-1,3-thiazole-5-carboxamide] | 550 nM |
| O=C(NCc1ncc(F)cc1F)c1cnc(N2CCC(N3CCCC4(COC4)C3)CC2)s1 [Example 136] | 320 nM |
| O=C(NCc1ncc(F)cc1F)c1cnc(N2CCC(N3CCCC(C4CC4)C3)CC2)s1 (stereo not drawn) [Example 137] | 19 nM |
| CC(C)(C)C1CCCN(C2CCN(c3ncc(C(=O)NCc4ncc(F)cc4F)s3)CC2)C1 (stereo not drawn) [Example 149] | 35 nM |
| C[C@@H]1CCCN(C2CCN(c3ncc(C(=O)N(C)Cc4ncc(F)cc4F)s3)CC2)C1 [Example 150] | 200 nM |
| C[C@@H]1CCCN(C2CCN(c3ncc(C(=O)NCc4ccccc4Cl)s3)CC2)C1 [Example 151] | 170 nM |

Stronger by IC50, values ahead:

| IC50 | Structure (SMILES) |
| --- | --- |
| 13 nM | C[C@@H]1CCCN(C2CCN(c3nc(C4CC4)c(C(=O)NCc4ncc(F)cc4F)s3)CC2)C1 [Example 122, 4-Cyclopropyl-N-[(3,5-difluoropyridin-2-yl)methyl]-2-[(3R)-3-methyl[1,4′-bipiperidin]-1′-yl]-1,3-thiazole-5-carboxamide] |
| 10 nM | C[C@@H]1CCCN(C2CCN(c3ncc(C(=O)NC4(c5ncc(F)cc5F)CC4)s3)CC2)C1 [Example 129, N-[1-(3,5-Difluoropyridin-2-yl)cyclopropyl]-2-[(3R)-3-methyl[1,4′-bipiperidin]-1′-yl]-1,3-thiazole-5-carboxamide] |
| 8.7 nM | O=C(NCc1ncc(F)cc1F)c1cnc(N2CCC(N3CCc4cccc(Cl)c4C3)CC2)s1 [Example 141] |
| 7.7 nM | C[C@@H]1CCCN(C2CCN(c3nc(-c4ccccc4Cl)c(C(=O)NCc4ncc(F)cc4F)s3)CC2)C1 [Example 118, 4-(2-Chlorophenyl)-N-[(3,5-difluoropyridin-2-yl)methyl]-2-[(3R)-3-methyl[1,4′-bipiperidin]-1′-yl]-1,3-thiazole-5-carboxamide] |
| 6.7 nM | O=C(NCc1ncc(F)cc1F)c1cnc(N2CCC(N3CCc4c(Cl)cccc4C3)CC2)s1 [Example 142] |
| 6.5 nM | O=C(NCc1ncc(F)cc1F)c1cnc(N2CCC(N3CCCC(C4CCC4)C3)CC2)s1 (stereo not drawn) [Example 138] |
| 1.8 nM | O=C(NCc1ncc(F)cc1F)c1cnc(N2CCC(N3CCc4cccc(F)c4C3)CC2)s1 [Example 144] |
| 1.72 nM | Cc1ccc2c(c1)CCN(C1CCN(c3ncc(C(=O)NCc4ncc(F)cc4F)s3)CC1)C2 [Example 146] |
| 1.4 nM | O=C(NCc1ncc(F)cc1F)c1cnc(N2CCC(N3CCCC4(CC4)C3)CC2)s1 [Example 64, 2-[4-(5-Azaspiro[2.5]octan-5-yl)piperidin-1-yl]-N-[(3,5-difluoropyridin-2-yl)methyl]-1,3-thiazole-5-carboxamide] |
| 1.3 nM | O=C(NCc1ncc(F)cc1F)c1cnc(N2CCC(N3CCC[C@@H](OCC4CC4)C3)CC2)s1 [Example 114, 2-[(3R)-3-(Cyclopropylmethoxy)[1,4′-bipiperidin]-1′-yl]-N-[(3,5-difluoropyridin-2-yl)methyl]-1,3-thiazole-5-carboxamide] |
| 1.3 nM | COCCC1CCCN(C2CCN(c3ncc(C(=O)NCc4ncc(F)cc4F)s3)CC2)C1 (stereo not drawn) [Example 148] |
| 1 nM | COc1ccc2c(c1)CCN(C1CCN(c3ncc(C(=O)NCc4ncc(F)cc4F)s3)CC1)C2 [Example 145] |
| 0.74 nM | O=C(NCc1ncc(F)cc1F)c1cnc(N2CCC(N3CCCC4(C3)CC4(F)F)C(F)C2)s1 (stereo not drawn) [Example 134, diamix-2-[4-(1,1-Difluoro-5-azaspiro[2.5]octan-5-yl)-3-fluoropiperidin-1-yl]-N-[(3,5-difluoropyridin-2-yl)methyl]-1,3-thiazole-5-carboxamide] |
| 0.65 nM | O=C(NCc1ncc(F)cc1F)c1cnc(N2CCC(N3CCc4ccc(Cl)cc4C3)CC2)s1 [Example 139] |
| 0.54 nM | CCc1nc(N2CCC(N3CCC[C@@H](C)C3)CC2)sc1C(=O)NCc1ncc(F)cc1F [Example 130, N-[(3,5-Difluoropyridin-2-yl)methyl]-4-ethyl-2-[(3R)-3-methyl[1,4′-bipiperidin]-1′-yl]-1,3-thiazole-5-carboxamide] |
